Measured values reported in publication PMC6240685, “Strong Inhibitory Effect, Low Cytotoxicity and High Plasma Stability of Steroidal Inhibitors of N-Methyl-D-Aspartate Receptors With C-3 Amide Structural Motif” (Frontiers in Pharmacology, 2018).
Read-outs that look alike come from different tables or passages of the source.

Assays:
[1] = Plasma stability, rat plasma; type: in vitro ADME; conditions: rat, plasma
[2] = test system: native NMDARs; assay: Inhibition of native NMDAR responses in cultured hippocampal neurons; type: cell-based, rat
Method: (§1) FIGURE 8 The effect of compound 6 on peak and steady-state responses of native NMDARs, AMPARs, and GABARs. (A) Examples of traces obtained from cultured hippocampal neurons. Compound 6 (10 μM) was pre-applied in the absence of agonists followed by co-application with NMDA (100 μM), AMPA (100 μM), and GABA (5 μM) (duration of agonist and steroid application is indicated by filled and open bars, respectively). (B) Bar graph represents the mean values of relative changes in the peak (black columns) and steady-state (red columns) responses of native NMDARs, AMPARs, and GABARs recorded in the continuous presence of 10 μM compound 6. Error bars represent SD from five independent measurements. Asterisks mark significance at the level of P < 0.05 (Paired t-test). […]
(§2) Electrophysiological experiments were performed on HEK293 cells transfected with plasmids encoding rat GluN1-1a/GluN2A-D and GFP genes as described previously, ([Petrovic et al., 2005]; [Cais et al., 2008]; [Korinek et al., 2010]) or on primary hippocampal neurons prepared from P0–P1 rats, plated on collagen/poly-D-lysine-coated glass coverslips at a density of ∼50,000 cells/cm^2, and grown in Neurobasal A medium with B27 Supplement (Gibco). […] Agonist-induced responses were low-pass filtered at 2 kHz, digitally sampled at 5 kHz, and analyzed with pClamp software version 10.5 (Molecular Devices). […]

[3] = test system: GABARs; assay: Inhibition of native GABAR responses in cultured hippocampal neurons; type: cell-based, rat
Method: as §1, §2

[4] = biological target: T1, GluN1/GluN2B receptors (Rattus norvegicus, UniProt P35439+Q00960); assay: Patch-clamp inhibition of glutamate responses of GluN1/GluN2B receptors in transfected HEK293 cells; type: cell-based
T1 construct: expressed in transfected cells; host or cells: HEK293
T1 sequence (Q00960 27-1482, other chains not shown): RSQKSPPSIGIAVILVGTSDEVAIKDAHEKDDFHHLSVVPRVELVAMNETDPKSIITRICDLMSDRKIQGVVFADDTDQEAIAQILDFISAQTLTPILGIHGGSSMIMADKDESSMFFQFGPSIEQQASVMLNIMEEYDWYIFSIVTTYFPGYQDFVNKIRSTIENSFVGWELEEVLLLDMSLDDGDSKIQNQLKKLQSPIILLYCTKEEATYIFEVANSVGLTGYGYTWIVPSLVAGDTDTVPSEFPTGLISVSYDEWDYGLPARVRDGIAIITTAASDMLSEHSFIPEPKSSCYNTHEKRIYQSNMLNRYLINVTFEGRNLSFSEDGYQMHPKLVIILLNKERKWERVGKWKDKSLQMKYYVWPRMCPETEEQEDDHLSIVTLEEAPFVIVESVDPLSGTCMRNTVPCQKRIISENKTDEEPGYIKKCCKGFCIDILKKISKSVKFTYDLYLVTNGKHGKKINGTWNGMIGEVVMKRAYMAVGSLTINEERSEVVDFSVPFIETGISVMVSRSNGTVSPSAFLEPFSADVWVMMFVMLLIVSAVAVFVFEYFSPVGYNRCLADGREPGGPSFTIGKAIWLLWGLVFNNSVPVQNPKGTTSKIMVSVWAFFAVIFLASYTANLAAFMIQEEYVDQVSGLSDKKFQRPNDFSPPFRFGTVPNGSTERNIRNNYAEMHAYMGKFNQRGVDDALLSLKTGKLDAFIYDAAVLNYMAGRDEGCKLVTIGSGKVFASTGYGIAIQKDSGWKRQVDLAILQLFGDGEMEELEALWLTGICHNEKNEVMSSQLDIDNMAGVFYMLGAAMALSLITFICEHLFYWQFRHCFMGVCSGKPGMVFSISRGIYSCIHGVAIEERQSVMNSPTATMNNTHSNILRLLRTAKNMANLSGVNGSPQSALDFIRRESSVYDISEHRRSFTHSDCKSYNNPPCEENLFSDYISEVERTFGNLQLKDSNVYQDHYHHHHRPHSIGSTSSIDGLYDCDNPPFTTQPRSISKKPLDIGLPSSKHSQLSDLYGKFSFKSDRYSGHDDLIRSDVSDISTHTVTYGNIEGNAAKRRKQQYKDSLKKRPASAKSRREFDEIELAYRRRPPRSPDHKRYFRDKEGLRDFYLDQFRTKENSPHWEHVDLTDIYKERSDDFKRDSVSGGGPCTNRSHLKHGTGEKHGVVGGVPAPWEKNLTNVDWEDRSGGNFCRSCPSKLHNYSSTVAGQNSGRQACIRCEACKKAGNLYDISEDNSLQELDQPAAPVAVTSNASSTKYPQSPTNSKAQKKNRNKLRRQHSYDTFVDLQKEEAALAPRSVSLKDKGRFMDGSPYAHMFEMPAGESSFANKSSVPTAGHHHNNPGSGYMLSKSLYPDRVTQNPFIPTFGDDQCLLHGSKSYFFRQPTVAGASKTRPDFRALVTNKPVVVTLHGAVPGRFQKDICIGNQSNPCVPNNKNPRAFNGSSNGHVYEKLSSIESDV

[5] = Plasma stability, human plasma; type: in vitro ADME; conditions: human, plasma
Method: Then, 37.8 μL of stock solution was added to 1400 μL of human plasma, maintained at 37°C. Aliquots (50 μL) withdrawn at 0, 1, 4, 8, and 24 h were analyzed by HPLC. […] The supernatant was transferred to an autosampler vial and 1 μL was injected onto LC-MS system. The samples were analyzed with an Agilent 1260 HPLC (Agilent Technologies) coupled to ESI-TOF Agilent 6530 (Agilent Technologies) with Agilent Jet Stream Technology. Samples were separated on a Waters ACQUITY UPLC CSH Phenyl-Hexyl (100 × 2.1, 130 Å, 1.7 μm) at a flow rate 0.3 ml/min. […] The mass spectrometry instrument was operated in a negative ion mode with a voltage of +3.00 kV applied to the capillary. The temperature, the flow rate of the nitrogen drying gas, the pressure of the nitrogen nebulizing gas, and the flow rate of the sheath gas were set at 325°C, 10 l/min, 40 psi, 390°C, and 11 l/min, respectively. Results are represented as a percentage of a compound remaining in spiked human plasma.

C[C@@]12CCC[C@H]1[C@@H]1CC[C@@H]3C[C@H](NC(=O)[C@@H](N)CC(=O)O)CC[C@]3(C)[C@H]1CC2 [Compound 6, (S)-3-amino-4-(((3R,5R,8S,9S,10S,13S,14S)-10,13-dimethylhexadecahydro-1H-cyclopenta[a]phenanthren-3-yl)amino)-4-oxobutanoic acid]
remaining at 8 h, 42.1 μg/mL [1]: 97% | inhibition of steady-state vs peak response, NMDARs ([2]; 10 μM compound present continuously, NMDA 100 μM): more efficient inhibitor of tonically activated receptors at the steady–state | IC50 ([2]; 100 μM NMDA, hippocampal neurons): 8.3 ± 2.1 µM | IC50 ([3]; 5 μM GABA, hippocampal neurons): 17 ± 0.2 µM | inhibition of steady-state vs peak response, GABARs ([3]; 10 μM compound present continuously, GABA 5 μM): more efficient inhibitor of tonically activated receptors at the steady–state | ΔGexp [4]: -7.29 kcal/mol | h ± SD (apparent Hill coefficient) ([4]; 1 mM glutamate and 10 μM glycine): 1.3 ± 0.1 | IC50 ([4]; as repeated in Table 2, read-out: IC50): 4.8 µM | IC50 ([4]; concentration-response, 1 mM glutamate and 10 μM glycine, read-out: IC50 ±SD): 7.4 ± 0.8 µM | IC50 ([4]; current responses to glutamate, HEK293, IC50 from single steroid dose, Hill coefficient fixed at 1.2, read-out: IC50 ± SD): 4.8 ± 0.9 µM | remaining at 8 h, 42.1 μg/mL [5]: 100%
